Measured values published in article PMC9495854, “Novel Phenothiazine/Donepezil-like Hybrids Endowed with Antioxidant Activity for a Multi-Target Approach to the Therapy of Alzheimer’s Disease” (Antioxidants, 2022).

System: SH-SY5Y cells
Assay: MTT cell viability assay, SH-SY5Y
Type: cell-based
Conditions: 24 h exposure
Method: Human hepatocellular liver carcinoma (HepG2) cell line and human neuroblastoma cell line, SH-SY5Y, were purchased from the American Type Culture Collection (ATCC, Manassas, VA, USA) and maintained at 37 °C in a humidified atmosphere (95% air and 5% carbon dioxide), and they were periodically screened for contamination. HepG2 cells were cultured in Eagle’s Minimum Essential Medium (MEM, Euroclone S.p.A., Pero, MI, Italy), supplemented with 10% Fetal Bovine Serum (FBS, Euroclone S.p.A., Pero, MI, Italy), 1% L-glutamine (Euroclone S.p.A., Pero, MI, Italy), 100 U/mL penicillin/streptomycin (Euroclone S.p.A., Pero, MI, Italy), 1% Non-Essential Amino Acids (NEAA, Euroclone S.p.A., Pero, MI, Italy). SH-SY5Y cells were grown in a 1:1 mixture of Dulbecco’s modified Eagle’s medium (DMEM)—high glucose (Euroclone S.p.A., Pero, MI, Italy) and Ham’s F12 Medium (Euroclone S.p.A., Pero, MI, Italy) supplemented with 10% FBS, 1% L-glutamine and 100 U/mL penicillin/streptomycin. For cell assays, cells were trypsinized using Trypsin-EDTA 1X in PBS (Euroclone S.p.A., Pero, MI, Italy).
HepG2 and SH-SY5Y cell viability was assessed as previously reported by using a conventional 3-(4,5-dimethylthiazol-2-yl)-2,5-diphenyltetrazolium bromide (MTT) assay. In brief, viable cells were seeded and grown for 24 h into a sterile 96-well cell culture cluster (Corning, Sigma-Aldrich, St. Louis, MO, USA) in a complete medium and maintained at 37 °C in a humidified atmosphere with 5% CO2. The cells were then added with different concentrations of each compound for a period of 1 h or 24 h. At the end, the culture medium was replaced by a solution of 0.5 mg/mL MTT (Sigma-Aldrich, St. Louis, MO, USA) in PBS. After 2 h of incubation at 37 °C in 5% CO2, the supernatant was carefully removed from each well, and the formazan crystals were dissolved in DMSO. The absorbance values were measured at 570 nm using Tecan Infinite M1000 Pro (Tecan, Cernusco S.N., Italy) and DMSO medium as blank solution. The results were reported as % cell viability = [optical density (OD) of tested compound/medium OD of control cells] × 100. The results are expressed as mean ± SEM of at least three independent measurements in triplicate.

O=C(NCCN1CCN(Cc2ccccc2F)CC1)c1ccc2c(c1)Nc1ccccc1S2 [Compound 12d, N-(2-(4-(2-Fluorobenzyl)piperazin-1-yl)ethyl)-10H-phenothiazine-2-carboxamide]
MTT cytotoxicity IC50 ± SEM SHSY-5Y 24 h: no cytotoxic effects
